# Assay results from PMC4579270, “Identification and Characterization of an Irreversible Inhibitor of CDK2” (Chemistry & Biology, 2015).
# Assays:
# Test in all cases: Dundee protein kinase screen
# Assay type in all cases: biochemical
# EPH-B3 = biological target: T1, EPH-B3 (Homo sapiens, UniProt P54753); settings: EPH-B3, 1µM; read-out: %Remaining activity at 1µM NU6300
# T1 sequence (P54753 34-998): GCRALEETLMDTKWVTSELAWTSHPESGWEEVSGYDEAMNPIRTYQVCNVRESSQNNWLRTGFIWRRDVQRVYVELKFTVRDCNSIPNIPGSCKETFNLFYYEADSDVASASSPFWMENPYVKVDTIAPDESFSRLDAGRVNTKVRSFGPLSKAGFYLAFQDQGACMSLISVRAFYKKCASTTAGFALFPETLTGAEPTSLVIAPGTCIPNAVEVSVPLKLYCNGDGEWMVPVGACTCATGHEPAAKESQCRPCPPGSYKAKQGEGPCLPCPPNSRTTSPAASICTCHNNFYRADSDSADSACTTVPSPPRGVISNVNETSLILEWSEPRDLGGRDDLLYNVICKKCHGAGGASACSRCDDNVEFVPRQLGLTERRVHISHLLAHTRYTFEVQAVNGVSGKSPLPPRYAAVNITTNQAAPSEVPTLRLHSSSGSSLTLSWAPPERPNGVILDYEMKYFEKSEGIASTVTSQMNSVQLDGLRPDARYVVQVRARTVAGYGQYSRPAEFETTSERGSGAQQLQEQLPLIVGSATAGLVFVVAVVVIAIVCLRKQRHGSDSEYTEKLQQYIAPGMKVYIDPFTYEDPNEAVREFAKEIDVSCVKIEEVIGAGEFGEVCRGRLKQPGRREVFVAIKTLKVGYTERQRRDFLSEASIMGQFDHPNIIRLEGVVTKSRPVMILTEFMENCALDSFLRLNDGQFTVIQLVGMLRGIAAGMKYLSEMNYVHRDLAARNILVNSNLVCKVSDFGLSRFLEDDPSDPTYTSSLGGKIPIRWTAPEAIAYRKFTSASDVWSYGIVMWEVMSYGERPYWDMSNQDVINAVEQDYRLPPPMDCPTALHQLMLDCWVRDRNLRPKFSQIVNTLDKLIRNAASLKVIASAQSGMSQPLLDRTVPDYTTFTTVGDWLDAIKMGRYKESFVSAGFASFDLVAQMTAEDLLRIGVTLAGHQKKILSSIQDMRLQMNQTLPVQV
# Protocol: (§1) Prior to determining its cellular activity, we carried out a screen to assess its selectivity against a panel of 131 protein kinases under conditions that would not distinguish between a reversible or irreversible mode of action. […] These 13 kinases and 29 additional kinases, selected for their known sensitivity to other inhibitors within the purine series, were then tested in a modified screening format in which the assay was repeated following a 4-hr pre-incubation (Table S3B). […] However, conformational flexibility around the active site may promote such an interaction with a residue from another part of the structure ([Martin et al., 2012]).
# (§2) Table S3, Related to Figure 4. NCL-0006300 protein kinase selectivity. (A) NU6300 was tested at a single concentration of 1µM against 131 protein kinases present in a Dundee protein kinase screen (Bain et al., 2007). Values given are % activity remaining and are the average of duplicate measurements: 0-25% (red), 26-50% (yellow), 51-80% (black) and above 81% (green). The kinase domain sequences (as defined by UniProt) of […]
# (§3) have a lysine residue at a position close to CDK2 Lys88 or Lys89. However, in the structure of tyrosine-protein kinase BTK (PDB ID: 3GEN) the residue equivalent to CDK2 Asp86 is Cys481 and therefore there is the potential for a covalent adduct to be formed through this side chain. Ephrin type-B receptor 3 (UniProt entry P54753) also encodes a cysteine residue (Cys717) that by sequence alignment would be predicted to be close to the CDK2 lysine pair. (B) Selected kinases were re-tested in the Dundee kinase screen against NU6300 at a single concentration of 0.5 µM both in the standard assay format and following a 4 hour pre-incubation in the presence of NU6300. Kinases which have very low activity after the 4 hour incubation so that results might not be wholly reliable are boxed in salmon. Kinases where the activity after a 4 hour pre-incubation is < 50% that in the standard assay format are highlighted in red.
# ERK1 = ERK1 (Homo sapiens, UniProt P27361); settings: ERK1, 1µM; read-out: %Remaining activity at 1µM NU6300
# Chain of ERK1 (P27361 whole entry): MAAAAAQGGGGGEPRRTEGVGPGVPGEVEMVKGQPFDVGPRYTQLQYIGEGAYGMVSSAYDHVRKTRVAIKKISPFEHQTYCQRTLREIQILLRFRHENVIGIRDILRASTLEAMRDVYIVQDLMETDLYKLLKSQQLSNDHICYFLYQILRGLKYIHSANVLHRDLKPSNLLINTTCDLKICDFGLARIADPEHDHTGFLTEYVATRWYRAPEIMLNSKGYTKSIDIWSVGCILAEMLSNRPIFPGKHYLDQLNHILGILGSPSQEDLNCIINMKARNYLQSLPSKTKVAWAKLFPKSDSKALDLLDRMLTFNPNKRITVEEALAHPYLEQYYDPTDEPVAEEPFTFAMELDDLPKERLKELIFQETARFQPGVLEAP
# Protocol: as §1, §2, §3
# ERK8 = biological target: T2, ERK8 (Homo sapiens, UniProt Q8TD08); settings: ERK8, 1µM; read-out: %Remaining activity at 1µM NU6300
# T2 sequence (Q8TD08 1-544): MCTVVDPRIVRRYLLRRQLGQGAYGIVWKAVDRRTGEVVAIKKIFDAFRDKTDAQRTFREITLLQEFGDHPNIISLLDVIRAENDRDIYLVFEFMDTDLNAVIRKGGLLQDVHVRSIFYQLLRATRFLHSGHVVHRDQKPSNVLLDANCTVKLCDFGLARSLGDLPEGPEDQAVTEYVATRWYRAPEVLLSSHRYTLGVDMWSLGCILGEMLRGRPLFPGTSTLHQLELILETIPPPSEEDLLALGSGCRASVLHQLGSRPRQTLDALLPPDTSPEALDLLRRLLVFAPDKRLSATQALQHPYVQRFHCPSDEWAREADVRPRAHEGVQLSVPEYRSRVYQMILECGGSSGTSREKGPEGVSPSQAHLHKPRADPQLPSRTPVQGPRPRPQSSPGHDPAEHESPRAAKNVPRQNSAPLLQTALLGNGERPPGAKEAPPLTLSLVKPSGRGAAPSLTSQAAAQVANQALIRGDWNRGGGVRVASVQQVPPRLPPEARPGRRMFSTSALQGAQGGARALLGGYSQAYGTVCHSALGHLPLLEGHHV
# Protocol: as §1, §2, §3
# MKK2 = MKK2 (Homo sapiens, UniProt P36507); settings: MKK2, 1µM; read-out: %Remaining activity at 1µM NU6300
# Chain of MKK2 (P36507 whole entry): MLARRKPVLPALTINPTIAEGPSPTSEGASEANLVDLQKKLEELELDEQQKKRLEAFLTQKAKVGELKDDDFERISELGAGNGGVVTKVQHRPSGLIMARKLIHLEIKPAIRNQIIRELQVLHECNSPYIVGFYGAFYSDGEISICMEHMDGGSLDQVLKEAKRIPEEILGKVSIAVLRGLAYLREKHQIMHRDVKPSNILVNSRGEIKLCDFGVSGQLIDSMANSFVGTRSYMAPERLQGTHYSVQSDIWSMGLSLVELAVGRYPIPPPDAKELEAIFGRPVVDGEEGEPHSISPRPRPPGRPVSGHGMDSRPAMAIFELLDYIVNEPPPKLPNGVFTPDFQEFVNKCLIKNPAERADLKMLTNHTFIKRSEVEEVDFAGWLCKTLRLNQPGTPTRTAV
# Protocol: as §1, §2, §3
# MLK3 = MLK3 (Homo sapiens, UniProt Q16584); settings: MLK3, 1µM; read-out: %Remaining activity at 1µM NU6300
# Chain of MLK3 (Q16584 whole entry): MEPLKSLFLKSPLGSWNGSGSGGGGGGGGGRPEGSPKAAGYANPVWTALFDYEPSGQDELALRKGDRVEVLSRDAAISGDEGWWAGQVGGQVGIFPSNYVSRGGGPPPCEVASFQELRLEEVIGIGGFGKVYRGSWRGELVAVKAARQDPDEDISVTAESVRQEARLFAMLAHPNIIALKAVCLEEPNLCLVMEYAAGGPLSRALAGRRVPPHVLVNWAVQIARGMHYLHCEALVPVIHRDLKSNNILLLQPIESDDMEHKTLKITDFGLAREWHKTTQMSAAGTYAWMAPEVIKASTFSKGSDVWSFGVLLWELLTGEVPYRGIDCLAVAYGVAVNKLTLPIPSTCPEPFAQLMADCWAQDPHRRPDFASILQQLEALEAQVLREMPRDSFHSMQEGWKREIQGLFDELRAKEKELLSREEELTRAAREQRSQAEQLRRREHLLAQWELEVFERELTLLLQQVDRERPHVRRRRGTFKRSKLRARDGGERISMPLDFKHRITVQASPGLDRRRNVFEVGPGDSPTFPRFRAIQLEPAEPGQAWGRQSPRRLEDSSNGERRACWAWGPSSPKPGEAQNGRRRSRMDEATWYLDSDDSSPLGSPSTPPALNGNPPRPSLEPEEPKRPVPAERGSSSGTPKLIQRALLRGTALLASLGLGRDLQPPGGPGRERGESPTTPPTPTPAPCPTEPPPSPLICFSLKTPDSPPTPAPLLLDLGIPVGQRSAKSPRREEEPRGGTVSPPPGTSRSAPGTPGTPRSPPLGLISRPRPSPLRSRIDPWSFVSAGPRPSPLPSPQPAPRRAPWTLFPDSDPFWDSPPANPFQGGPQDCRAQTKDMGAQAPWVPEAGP
# Protocol: as §1, §2, §3
# PKA = PKA (Homo sapiens, UniProt P17612); settings: read-out: %Remaining activity at 1µM NU6300
# Protocol: as §1, §2, §3
# SIK3 = SIK3 (Homo sapiens, UniProt Q9Y2K2); settings: SIK3, 1µM; read-out: %Remaining activity at 1µM NU6300
# Protocol: as §1, §2, §3
# TIE2 = TIE2 (Homo sapiens, UniProt Q02763); settings: TIE2, 1µM; read-out: %Remaining activity at 1µM NU6300
# Chain of TIE2 (Q02763 23-1124): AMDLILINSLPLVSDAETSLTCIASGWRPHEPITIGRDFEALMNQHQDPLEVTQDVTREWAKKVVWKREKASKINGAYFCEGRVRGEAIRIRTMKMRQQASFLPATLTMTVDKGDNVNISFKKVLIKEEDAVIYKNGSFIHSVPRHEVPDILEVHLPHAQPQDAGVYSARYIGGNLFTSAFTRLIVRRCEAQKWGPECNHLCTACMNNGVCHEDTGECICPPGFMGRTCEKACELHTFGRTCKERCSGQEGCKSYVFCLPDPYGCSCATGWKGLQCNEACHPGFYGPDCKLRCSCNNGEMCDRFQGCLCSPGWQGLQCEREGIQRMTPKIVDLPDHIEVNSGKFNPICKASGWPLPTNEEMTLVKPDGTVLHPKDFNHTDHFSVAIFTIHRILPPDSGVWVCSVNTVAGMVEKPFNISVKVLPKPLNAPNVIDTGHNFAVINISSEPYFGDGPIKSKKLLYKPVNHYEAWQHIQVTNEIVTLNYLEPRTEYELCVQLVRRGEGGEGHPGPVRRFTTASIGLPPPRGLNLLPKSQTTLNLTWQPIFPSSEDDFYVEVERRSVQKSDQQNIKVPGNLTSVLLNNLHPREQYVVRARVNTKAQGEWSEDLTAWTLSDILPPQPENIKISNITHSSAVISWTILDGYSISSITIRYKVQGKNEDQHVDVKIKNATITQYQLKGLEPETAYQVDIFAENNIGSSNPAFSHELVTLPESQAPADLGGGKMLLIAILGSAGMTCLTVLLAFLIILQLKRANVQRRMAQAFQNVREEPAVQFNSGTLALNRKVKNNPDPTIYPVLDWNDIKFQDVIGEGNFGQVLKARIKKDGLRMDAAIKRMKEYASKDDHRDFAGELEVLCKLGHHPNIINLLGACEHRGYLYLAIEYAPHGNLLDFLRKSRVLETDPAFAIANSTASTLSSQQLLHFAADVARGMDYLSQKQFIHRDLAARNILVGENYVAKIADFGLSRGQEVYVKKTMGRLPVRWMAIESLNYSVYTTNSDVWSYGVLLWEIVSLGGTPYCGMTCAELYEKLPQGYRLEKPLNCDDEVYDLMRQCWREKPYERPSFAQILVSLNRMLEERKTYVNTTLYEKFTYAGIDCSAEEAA
# Protocol: as §1, §2, §3
# TTBK1 = TTBK1 (Homo sapiens, UniProt Q5TCY1); settings: TTBK1, 1µM; read-out: %Remaining activity at 1µM NU6300
# Chain of TTBK1 (Q5TCY1 whole entry): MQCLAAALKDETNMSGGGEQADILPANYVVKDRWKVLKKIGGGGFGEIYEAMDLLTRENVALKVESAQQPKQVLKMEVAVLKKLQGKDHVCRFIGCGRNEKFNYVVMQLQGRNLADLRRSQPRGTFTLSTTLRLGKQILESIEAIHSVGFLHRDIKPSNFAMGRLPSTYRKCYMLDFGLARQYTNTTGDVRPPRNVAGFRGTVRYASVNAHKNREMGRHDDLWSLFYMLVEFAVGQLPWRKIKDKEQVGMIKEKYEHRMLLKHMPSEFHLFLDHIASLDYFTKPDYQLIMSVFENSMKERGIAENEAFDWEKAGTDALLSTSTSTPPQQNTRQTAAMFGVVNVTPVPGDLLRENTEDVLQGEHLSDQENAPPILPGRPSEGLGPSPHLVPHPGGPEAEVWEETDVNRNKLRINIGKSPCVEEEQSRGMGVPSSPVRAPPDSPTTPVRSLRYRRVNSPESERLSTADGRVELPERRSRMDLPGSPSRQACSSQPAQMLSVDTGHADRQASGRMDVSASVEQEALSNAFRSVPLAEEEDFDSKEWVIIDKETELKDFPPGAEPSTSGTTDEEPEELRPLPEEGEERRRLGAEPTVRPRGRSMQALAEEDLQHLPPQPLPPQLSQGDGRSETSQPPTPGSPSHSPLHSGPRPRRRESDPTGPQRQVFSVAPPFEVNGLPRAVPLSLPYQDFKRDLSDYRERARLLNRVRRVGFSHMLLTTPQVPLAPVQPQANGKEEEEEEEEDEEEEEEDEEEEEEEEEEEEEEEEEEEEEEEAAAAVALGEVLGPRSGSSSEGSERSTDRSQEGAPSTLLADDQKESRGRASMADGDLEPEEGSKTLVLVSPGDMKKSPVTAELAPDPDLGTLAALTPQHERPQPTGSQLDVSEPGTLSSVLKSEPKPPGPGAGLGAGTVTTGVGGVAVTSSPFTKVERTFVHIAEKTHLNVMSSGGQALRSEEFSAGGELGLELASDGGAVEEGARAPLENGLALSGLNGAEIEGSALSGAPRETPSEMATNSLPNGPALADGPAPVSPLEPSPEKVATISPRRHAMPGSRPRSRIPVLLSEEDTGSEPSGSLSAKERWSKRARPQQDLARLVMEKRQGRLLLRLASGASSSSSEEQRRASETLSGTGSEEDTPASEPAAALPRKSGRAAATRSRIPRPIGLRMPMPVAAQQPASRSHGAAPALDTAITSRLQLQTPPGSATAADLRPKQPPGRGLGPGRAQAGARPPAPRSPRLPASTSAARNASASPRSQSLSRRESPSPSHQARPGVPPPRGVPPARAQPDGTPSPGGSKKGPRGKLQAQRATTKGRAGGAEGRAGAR
# Protocol: as §1, §2, §3
compound,measurement,setting,value
"C=CS(=O)(=O)c1ccc(Nc2nc(OCC3CCCCC3)c3nc[nH]c3n2)cc1 [NU6300, 6-(cyclohexylmethoxy)-N-(4-(vinylsulfonyl)phenyl)-9H-purin-2-amine]",remaining activity at 1 µM,EPH-B3,14%
same,remaining activity at 1 µM,ERK1,70%
same,remaining activity at 1 µM,ERK8,24%
same,remaining activity at 1 µM,MKK2,84%
same,remaining activity at 1 µM,MLK3,16%
same,remaining activity at 1 µM,PKA,88%
same,remaining activity at 1 µM,SIK3,76%
same,remaining activity at 1 µM,TIE2,122%
same,remaining activity at 1 µM,TTBK1,83%
